pIC50: −log10 of the molar value. Positions of bridges follow the written chain, without caps; N, C: chain ends. Residues, ends and D or L forms follow the SMILES beside them.

The test concerns the target T1, IL17-RE-IL-17C (Homo sapiens, UniProt Q8NFR9+Q9P0M4).
T1 sequence (Q9P0M4 whole entry): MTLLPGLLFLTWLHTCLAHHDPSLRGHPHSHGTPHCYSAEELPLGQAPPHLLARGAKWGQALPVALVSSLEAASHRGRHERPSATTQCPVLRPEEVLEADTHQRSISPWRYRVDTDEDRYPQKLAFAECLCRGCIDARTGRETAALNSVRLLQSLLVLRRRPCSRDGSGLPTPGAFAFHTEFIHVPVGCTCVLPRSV
T1 sequence (Q8NFR9 whole entry): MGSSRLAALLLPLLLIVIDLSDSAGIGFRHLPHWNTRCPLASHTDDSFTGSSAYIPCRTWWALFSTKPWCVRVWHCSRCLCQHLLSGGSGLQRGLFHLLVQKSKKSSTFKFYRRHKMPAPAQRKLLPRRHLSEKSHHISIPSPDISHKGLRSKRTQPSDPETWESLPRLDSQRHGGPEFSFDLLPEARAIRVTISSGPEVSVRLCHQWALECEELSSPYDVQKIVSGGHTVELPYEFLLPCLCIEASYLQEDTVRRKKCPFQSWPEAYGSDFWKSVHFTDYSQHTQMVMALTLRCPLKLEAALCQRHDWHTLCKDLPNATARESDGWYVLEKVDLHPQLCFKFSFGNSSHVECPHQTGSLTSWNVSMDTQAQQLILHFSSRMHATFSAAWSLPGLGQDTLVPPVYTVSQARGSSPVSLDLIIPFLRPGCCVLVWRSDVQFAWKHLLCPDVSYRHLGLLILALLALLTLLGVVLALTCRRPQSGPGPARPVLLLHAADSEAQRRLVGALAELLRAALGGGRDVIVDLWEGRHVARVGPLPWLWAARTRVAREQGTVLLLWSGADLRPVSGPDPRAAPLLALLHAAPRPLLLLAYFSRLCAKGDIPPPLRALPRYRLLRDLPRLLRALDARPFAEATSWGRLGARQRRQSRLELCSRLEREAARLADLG
The test can be described thus: Inhibition of IL-17C/IL-17RE interaction (unknown origin) incubated for 1.5 hrs by ELISA method. Format: protein-complex assay.
As usually defined, the pIC50 is −log10 of the IC50, conventionally taken in molar units. In turn, `CC[C@H](C)[C@@H]1NC(=O)[C@H](Cc2c[nH]cn2)NC(=O)[C@H](Cc2ccc(O)cc2)NC(=O)CSC[C@@H](C(=O)NCC(N)=O)NC(=O)CNC(=O)[C@H](CC(C)C)NC(=O)[C@H](Cc2c[nH]cn2)NC(=O)CNC(=O)[C@H](Cc2ccc(O)cc2)NC(=O)[C@H](CC(C)C)NC(=O)[C@H](CO)NC(=O)[C@H](Cc2ccccc2)NC(=O)[C@H](Cc2ccc(O)cc2)NC(=O)[C@H](Cc2ccc(O)cc2)NC1=O` ({CH2CO}-YHIYYFSLYGHLGCG-NH2; thioether N-14) gave a negative-log IC50 (pIC50) of 8.21.
Under `CC[C@H](C)[C@@H]1NC(=O)[C@H](Cc2c[nH]cn2)NC(=O)[C@H](Cc2ccc(O)cc2)NC(=O)CSC[C@@H](C(=O)NCC(N)=O)NC(=O)CNC(=O)[C@H](CC(C)C)NC(=O)[C@H](CCCNC(=N)N)NC(=O)CNC(=O)[C@H](Cc2ccc(O)cc2)NC(=O)[C@H](CC(C)C)NC(=O)[C@H](CO)NC(=O)[C@H](Cc2ccccc2)NC(=O)[C@H](Cc2ccc(O)cc2)NC(=O)[C@H](Cc2ccc(O)cc2)NC1=O` ({CH2CO}-YHIYYFSLYGRLGCG-NH2; thioether N-14) stands 8.52.
With `CC[C@H](C)[C@@H]1NC(=O)[C@H](CO)NC(=O)[C@H](Cc2ccc(O)cc2)NC(=O)[C@H](Cc2ccc(O)cc2)NC(=O)[C@H]([C@@H](C)CC)NC(=O)[C@H](Cc2c[nH]cn2)NC(=O)[C@H](CC(N)=O)NC(=O)[C@H](Cc2ccccc2)NC(=O)[C@H](Cc2ccccc2)NC(=O)[C@H](CCC(N)=O)NC(=O)[C@H](CC(=O)O)NC(=O)[C@H]([C@@H](C)CC)NC(=O)[C@H](Cc2ccc(O)cc2)NC(=O)CSC[C@@H](C(=O)NCC(N)=O)NC1=O` ({CH2CO}-YIDQFFNHIYYSICG-NH2; thioether N-14) the figure was 4.83.
Take `CC[C@H](C)[C@@H]1NC(=O)[C@H](CCCNC(=N)N)NC(=O)[C@H](Cc2ccc(O)cc2)NC(=O)[C@H](Cc2ccc(O)cc2)NC(=O)[C@H](Cc2c[nH]cn2)NC(=O)[C@H](Cc2c[nH]cn2)NC(=O)[C@H](Cc2ccc(O)cc2)NC(=O)CSC[C@@H](C(=O)NCC(N)=O)NC(=O)CNC(=O)[C@H](CC(C)C)NC(=O)[C@H](CCC(=O)O)NC(=O)CNC(=O)[C@H](C)NC(=O)[C@H](CC(C)C)NC1=O` ({CH2CO}-YHHYYRILAGELGCG-NH2; thioether N-14): the pIC50 is < 4.52.
On to `CC(C)C[C@@H]1NC(=O)[C@H](C)NC(=O)[C@H]([C@@H](C)O)NC(=O)[C@H](C)NC(=O)[C@H](CC(C)C)NC(=O)[C@H](Cc2c[nH]c3ccccc23)NC(=O)[C@H](CO)NC(=O)[C@H](CC(=O)O)NC(=O)[C@H](Cc2ccccc2)NC(=O)[C@H](Cc2c[nH]cn2)NC(=O)[C@H](Cc2ccc(O)cc2)NC(=O)CSC[C@@H](C(=O)NCC(N)=O)NC(=O)[C@H](CCCNC(=N)N)NC1=O` ({CH2CO}-YHFDSWLATALRCG-NH2; thioether N-13), for which the negative-log IC50 (pIC50) is < 4.52.
Regarding `CC(C)C[C@@H]1NC(=O)[C@H](CC(C)C)NC(=O)[C@H](CCCCN)NC(=O)[C@H](CO)NC(=O)[C@H](CC(C)C)NC(=O)[C@H](Cc2c[nH]c3ccccc23)NC(=O)[C@H](CC(N)=O)NC(=O)[C@H](CC(=O)O)NC(=O)[C@H](Cc2ccccc2)NC(=O)[C@H](Cc2c[nH]cn2)NC(=O)[C@H](Cc2ccc(O)cc2)NC(=O)CSC[C@@H](C(=O)NCC(N)=O)NC(=O)[C@H](CC(=O)O)NC1=O` ({CH2CO}-YHFDNWLSKLLDCG-NH2; thioether N-13), the negative-log IC50 (pIC50) was < 4.52.
`CC(C)C[C@@H]1NC(=O)[C@H](CC(N)=O)NC(=O)CNC(=O)[C@H](Cc2ccc(O)cc2)NC(=O)[C@H](CC(C)C)NC(=O)[C@H](CO)NC(=O)[C@H](C(C)C)NC(=O)[C@H](Cc2ccc(O)cc2)NC(=O)[C@H](Cc2ccc(O)cc2)NC(=O)[C@H](CC(C)C)NC(=O)[C@H](Cc2c[nH]cn2)NC(=O)[C@H](Cc2ccc(O)cc2)NC(=O)CSC[C@@H](C(=O)NCC(N)=O)NC(=O)CNC1=O` ({CH2CO}-YHLYYVSLYGNLGCG-NH2; thioether N-14) had a pIC50 of 8.19.
For the compound `CC[C@H](C)[C@@H]1NC(=O)[C@H](CCCNC(=N)N)NC(=O)[C@H](C)NC(=O)[C@H](Cc2ccc(O)cc2)NC(=O)[C@H](Cc2c[nH]cn2)NC(=O)[C@H](Cc2c[nH]cn2)NC(=O)[C@H](Cc2ccc(O)cc2)NC(=O)CSC[C@@H](C(=O)NCC(N)=O)NC(=O)CNC(=O)[C@H](CC(C)C)NC(=O)[C@H](CCC(=O)O)NC(=O)CNC(=O)[C@H](Cc2ccc(O)cc2)NC(=O)[C@H](CC(C)C)NC1=O` ({CH2CO}-YHHYARILYGELGCG-NH2; thioether N-14), the pIC50 was < 4.52.
Under `CC[C@H](C)[C@@H]1NC(=O)[C@@H]2CCCN2C(=O)[C@H](CCCNC(=N)N)NC(=O)[C@H](Cc2c[nH]c3ccccc23)NC(=O)[C@H](Cc2ccccc2)NC(=O)[C@H](CC(N)=O)NC(=O)[C@@H]2CCCN2C(=O)[C@H](Cc2ccccc2)NC(=O)[C@H](Cc2c[nH]c3ccccc23)NC(=O)[C@H](Cc2ccc(O)cc2)NC(=O)CSC[C@@H](C(=O)NCC(N)=O)NC(=O)[C@H](CC(N)=O)NC1=O` ({CH2CO}-YWFPNFWRPINCG-NH2; thioether N-12) stands < 4.52.
With `CC(C)C[C@@H]1NC(=O)[C@H](Cc2c[nH]c3ccccc23)NC(=O)[C@H](Cc2ccccc2)NC(=O)[C@H](CC(N)=O)NC(=O)[C@H](Cc2ccc(O)cc2)NC(=O)[C@H](CO)NC(=O)[C@H](Cc2ccc(O)cc2)NC(=O)[C@H](CCCNC(=N)N)NC(=O)[C@H](CC(C)C)NC(=O)[C@H](CC(=O)O)NC(=O)[C@H](Cc2ccc(O)cc2)NC(=O)CSC[C@@H](C(=O)NCC(N)=O)NC(=O)[C@H](C)NC1=O` ({CH2CO}-YDLRYSYNFWLACG-NH2; thioether N-13) the figure was < 4.52; with `CC(C)C[C@@H]1NC(=O)[C@H](CC(N)=O)NC(=O)CNC(=O)[C@H](Cc2ccc(O)cc2)NC(=O)[C@H](CC(C)C)NC(=O)[C@H](CO)NC(=O)[C@H](C(C)C)NC(=O)[C@H](Cc2ccc(O)cc2)NC(=O)[C@H](Cc2ccc(O)cc2)NC(=O)[C@H](CCC(N)=O)NC(=O)[C@H](Cc2c[nH]cn2)NC(=O)[C@H](Cc2ccc(O)cc2)NC(=O)CSC[C@@H](C(=O)NCC(N)=O)NC(=O)CNC1=O` ({CH2CO}-YHQYYVSLYGNLGCG-NH2; thioether N-14), 7.98.
`CC(C)C[C@@H]1NC(=O)[C@H](Cc2c[nH]c3ccccc23)NC(=O)[C@H](C)NC(=O)[C@H](CC(=O)O)NC(=O)[C@H](Cc2ccccc2)NC(=O)[C@H](Cc2c[nH]cn2)NC(=O)[C@H](Cc2ccc(O)cc2)NC(=O)CSC[C@@H](C(=O)NCC(=O)O)NC(=O)[C@H](CC(C)C)NC(=O)[C@H](Cc2ccc(O)cc2)NC(=O)[C@H](CC(=O)O)NC(=O)[C@H](CCCCN)NC1=O` ({CH2CO}-YHFDAWLKDYLCG-OH; thioether N-12): the pIC50 is < 4.52.
Under `CC[C@H](C)[C@@H]1NC(=O)[C@H](Cc2cnc[nH]2)NC(=O)[C@H](Cc2ccc(O)cc2)NC(=O)CSC[C@@H](C(=O)NCC(N)=O)NC(=O)CNC(=O)[C@H](CC(C)C)NC(=O)[C@H](CO)NC(=O)CNC(=O)[C@H](Cc2ccc(O)cc2)NC(=O)[C@H](CC(C)C)NC(=O)[C@H](CO)NC(=O)[C@H](C)NC(=O)[C@H](Cc2ccc(O)cc2)NC(=O)[C@@H](Cc2ccc(O)cc2)NC1=O` stands 8.31.
With `CC[C@H](C)[C@@H]1NC(=O)[C@H](CCCNC(=N)N)NC(=O)[C@H](Cc2ccc(O)cc2)NC(=O)[C@H](Cc2ccc(O)cc2)NC(=O)[C@H](Cc2c[nH]cn2)NC(=O)[C@H](Cc2c[nH]cn2)NC(=O)[C@H](Cc2ccc(O)cc2)NC(=O)CSC[C@@H](C(=O)NCC(N)=O)NC(=O)CNC(=O)[C@H](CC(C)C)NC(=O)[C@H](CCC(=O)O)NC(=O)CNC(=O)[C@H](Cc2c[nH]cn2)NC(=O)[C@H](CC(C)C)NC1=O` ({CH2CO}-YHHYYRILHGELGCG-NH2; thioether N-14) the figure was < 4.52.
With `CC[C@H](C)[C@@H]1NC(=O)[C@H](CCCNC(=N)N)NC(=O)[C@H](Cc2ccc(O)cc2)NC(=O)[C@H](Cc2ccc(O)cc2)NC(=O)[C@H](Cc2c[nH]cn2)NC(=O)[C@H](Cc2c[nH]cn2)NC(=O)[C@H](Cc2ccc(O)cc2)NC(=O)CSC[C@@H](C(=O)NCC(N)=O)NC(=O)CNC(=O)[C@H](CC(C)C)NC(=O)[C@H](CCC(=O)O)NC(=O)CNC(=O)[C@H](Cc2ccc(O)cc2)NC(=O)[C@H](CC(C)C)NC1=O` ({CH2CO}-YHHYYRILYGELGCG-NH2; thioether N-14) the figure was 6.78; with `CC[C@H](C)[C@@H]1NC(=O)[C@H](Cc2c[nH]c3ccccc23)NC(=O)[C@H](C)NC(=O)[C@H](CC(=O)O)NC(=O)[C@H](Cc2ccccc2)NC(=O)[C@H](Cc2c[nH]cn2)NC(=O)[C@H](Cc2ccc(O)cc2)NC(=O)CSC[C@@H](C(=O)NCC(N)=O)NC(=O)[C@H](CC(C)C)NC(=O)[C@H](CO)NC(=O)[C@H](CCCNC(=N)N)NC(=O)[C@H](C)NC1=O` ({CH2CO}-YHFDAWIARSLCG-NH2; thioether N-12), < 4.52.

The values are drawn from ChEMBL document CHEMBL5360618, “PepScaf: Harnessing Machine Learning with In Vitro Selection toward De Novo Macrocyclic Peptides against IL-17C/IL-17RE Interaction” (J Med Chem, 2023).
